{
  "source": "patent US6656690B2",
  "about": "“Mass spectrometric methods for biomolecular screening” (priority 1998, dated 2003)",
  "tested_on": "27-mer RNA/DNA chimeric corresponding to the 16S rRNA A site",
  "assay": "ESI-MS and CID/CAD MS-MS protection assay on chimeric 27-mer RNA/DNA (ion trap)",
  "assay_type": "binding, prokaryotic",
  "method": "In order to study the structure of the 27-mer RNA corresponding to the 16S rRNA A site, of sequence 5′-GGC-GUC-ACA-CCU-UCG-GGU-GAA-GUC-GCC-3′ (SEQ ID NO:1) a chimeric RNA/DNA molecule that incorporates three deoxyadenosine (dA) residues at positions 7, 20 and 21 was prepared using standard nucleic acid synthesis protocols on an automated synthesizer. This chimeric nucleic acid of sequence 5′-GGC-GUC-dACA-CCU-UCG-GGU-GdAdA-GUC-GCC-3′ (SEQ ID NO:2) was injected as a solution in water into an electrospray mass spectrometer. […] These fragments correspond to the w7^(2−), w8^(2−) and the a7-B^(2−) fragments respectively, that are formed by cleavage of the chimeric nucleic acid adjacent to each of the incorporated dA residues. […]\nNext, another sample of the chimeric nucleic acid was treated with a solution of paromomycin and the resulting mixture analyzed by ESI followed by CID using a mass spectrometer. […]\n1 mL (0.6 O.D.) of a solution of a 27-mer RNA containing 3 dA residues (from Example 1) was diluted into 500 μL of 1:1 isopropanol:water and adjusted to provide a solution that was 150 mM in ammonium acetate, pH 7.4 and wherein the RNA concentration was […]. […] This mixture was then subjected to ESI-MS and the ionization of the nucleic acid and its complex monitored in the mass spectrum. […]",
  "note": "“Also recorded” adds a separate entry of the source.",
  "data": [
    {"smiles": "NC[C@@H]1O[C@H](O[C@H]2[C@@H](O)[C@H](O[C@@H]3[C@@H](O)[C@H](N)C[C@H](N)[C@H]3O[C@H]3O[C@H](CO)[C@@H](O)[C@H](O)[C@H]3N)O[C@@H]2CO)[C@H](N)[C@@H](O)[C@@H]1O", "note": "[paromomycin]", "values": [
      {"measurement": "fragmentation at dA sites of the complex under CID/CAD (protection of binding site)", "setting": "same activation energy as free RNA", "value": "no fragmentation at the dA sites; also recorded: No cleavage was found to occur; also recorded: No significant fragment ions; also recorded: No fragment ions are detected"},
      {"measurement": "complex formation / binding strength with chimeric 27-mer (in words)", "setting": "target 10 mM as printed, paromomycin and library members ~150 nM", "value": "only a 1:1 complex"}
    ]}
  ]
}
